Measured values taken from the supplement of paper PMC11451515.

Test system: P12-Ichikawa
Assay: cell viability relative to DMSO control; higher = less cytotoxic
Conditions: 48 h
Procedure, shortened: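 NOMO1, SEM and P12-Ichikawa leukemia cells spent at least four passages adapting to each medium before use. They were seeded at 500 cells/well (NOMO1, SEM) or 1000 cells/well (P12-Ichikawa) in 5 μl in 1536-well plates and pin-dosed with library compounds in DMSO at 11 threefold steps from 47 μM down to 0.79 nM. After 48 h at 37°C, CellTiter-Glo One luminescence was read. Viability is reported as a percentage of the DMSO wells on each plate, with cell-free wells as background.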

[1] = HPLM + 10% dialyzed FBS, 0.000781 µM
[2] = HPLM + 10% dialyzed FBS, 0.00234 µM
[3] = HPLM + 10% dialyzed FBS, 0.00702 µM
[4] = HPLM + 10% dialyzed FBS, 0.0211 µM
[5] = HPLM + 10% dialyzed FBS, 0.0632 µM
[6] = HPLM + 10% dialyzed FBS, 0.19 µM
[7] = HPLM + 10% dialyzed FBS, 0.569 µM
[8] = HPLM + 10% dialyzed FBS, 1.71 µM
[9] = HPLM + 10% dialyzed FBS, 5.12 µM
[10] = HPLM + 10% dialyzed FBS, 15.4 µM
[11] = HPLM + 10% dialyzed FBS, 46.1 µM
[12] = RPMI 5 mM glucose + 10% dialyzed FBS, 0.000781 µM
[13] = RPMI 5 mM glucose + 10% dialyzed FBS, 0.00234 µM
[14] = RPMI 5 mM glucose + 10% dialyzed FBS, 0.00702 µM
[15] = RPMI 5 mM glucose + 10% dialyzed FBS, 0.0211 µM
[16] = RPMI 5 mM glucose + 10% dialyzed FBS, 0.0632 µM
[17] = RPMI 5 mM glucose + 10% dialyzed FBS, 0.19 µM
[18] = RPMI 5 mM glucose + 10% dialyzed FBS, 0.569 µM
[19] = RPMI 5 mM glucose + 10% dialyzed FBS, 1.71 µM
[20] = RPMI 5 mM glucose + 10% dialyzed FBS, 5.12 µM
[21] = RPMI 5 mM glucose + 10% dialyzed FBS, 15.4 µM
[22] = RPMI 5 mM glucose + 10% dialyzed FBS, 46.1 µM
[23] = RPMI 5 mM glucose + 10% FBS, 0.000781 µM
[24] = RPMI 5 mM glucose + 10% FBS, 0.00234 µM
[25] = RPMI 5 mM glucose + 10% FBS, 0.00702 µM
[26] = RPMI 5 mM glucose + 10% FBS, 0.0211 µM
[27] = RPMI 5 mM glucose + 10% FBS, 0.0632 µM
[28] = RPMI 5 mM glucose + 10% FBS, 0.19 µM
[29] = RPMI 5 mM glucose + 10% FBS, 0.569 µM
[30] = RPMI 5 mM glucose + 10% FBS, 1.71 µM
[31] = RPMI 5 mM glucose + 10% FBS, 5.12 µM
[32] = RPMI 5 mM glucose + 10% FBS, 15.4 µM
[33] = RPMI 5 mM glucose + 10% FBS, 46.1 µM

## C[C@]12CC[C@H]3[C@@H](C\C=C/4C[C@@H](O)CC[C@]34C)[C@@H]1CCC2=O
[1]
  cell viability: 111%
[2]
  cell viability: 110%
[3]
  cell viability: 117%
[4]
  cell viability: 108%
[5]
  cell viability: 110%
[6]
  cell viability: 115%
[7]
  cell viability: 107%
[8]
  cell viability: 111%
[9]
  cell viability: 58%
[10]
  cell viability: 102%
[11]
  cell viability: 96.2%
[12]
  cell viability: 111%
[13]
  cell viability: 109%
[14]
  cell viability: 115%
[15]
  cell viability: 108%
[16]
  cell viability: 122%
[17]
  cell viability: 114%
[18]
  cell viability: 105%
[19]
  cell viability: 102%
[20]
  cell viability: 99.1%
[21]
  cell viability: 101%
[22]
  cell viability: 98.5%

## CC(O)(C#Cc1ccc2c(c1)N(c1nc(N)ncc1Cl)CC2)c1nccs1 (stereo not drawn)
[1]
  cell viability: 111%
[2]
  cell viability: 123%
[3]
  cell viability: 121%
[4]
  cell viability: 71%
[5]
  cell viability: 116%
[6]
  cell viability: 123%
[7]
  cell viability: 126%
[8]
  cell viability: 121%
[9]
  cell viability: 117%
[10]
  cell viability: 116%
[11]
  cell viability: 96.8%
[23]
  cell viability: 107%
[24]
  cell viability: 118%
[25]
  cell viability: 123%
[26]
  cell viability: 79.2%
[27]
  cell viability: 127%
[28]
  cell viability: 115%
[29]
  cell viability: 121%
[30]
  cell viability: 127%
[31]
  cell viability: 126%
[32]
  cell viability: 115%
[33]
  cell viability: 74.3%

## COC[C@H](c1ccc(C(F)(F)F)cc1)N1CCN(C2(C)CCN(C(=O)c3c(C)ncnc3C)CC2)C[C@H]1C.O=C(O)/C=C\C(=O)O
[1]
  cell viability: 92%
[2]
  cell viability: 100%
[3]
  cell viability: 107%
[4]
  cell viability: 111%
[5]
  cell viability: 107%
[6]
  cell viability: 110%
[7]
  cell viability: 113%
[8]
  cell viability: 117%
[9]
  cell viability: 106%
[10]
  cell viability: 103%
[11]
  cell viability: 98.5%
[23]
  cell viability: 101%
[24]
  cell viability: 123%
[25]
  cell viability: 109%
[26]
  cell viability: 110%
[27]
  cell viability: 106%
[28]
  cell viability: 121%
[29]
  cell viability: 109%
[30]
  cell viability: 104%
[31]
  cell viability: 105%
[32]
  cell viability: 99.8%
[33]
  cell viability: 99.3%
[12]
  cell viability: 90.1%
[13]
  cell viability: 108%
[14]
  cell viability: 99.7%
[15]
  cell viability: 110%
[16]
  cell viability: 103%
[17]
  cell viability: 111%
[18]
  cell viability: 117%
[19]
  cell viability: 110%
[20]
  cell viability: 102%
[21]
  cell viability: 95.2%
[22]
  cell viability: 92.1%

## CN1C(=O)C[C@H](C(=O)N[C@@H](Cc2cnc[nH]2)C(=O)N2CCC[C@H]2C(N)=O)NC1=O
[12]
  cell viability: 114%
[13]
  cell viability: 128%
[14]
  cell viability: 121%
[15]
  cell viability: 115%
[16]
  cell viability: 132%
[17]
  cell viability: 123%
[18]
  cell viability: 118%
[19]
  cell viability: 120%
[20]
  cell viability: 119%
[21]
  cell viability: 119%
[22]
  cell viability: 90.6%

## CCC(=C/[C@H](C)C/C=C/C(C)=C/[C@@H](C)C(=O)[C@@H](C)[C@H](O)[C@@H](C)C/C(C)=C/C(=O)O)/C=C/[C@@H]1OC(=O)C=C[C@@H]1C
[1]
  cell viability: 110%
[2]
  cell viability: 114%
[3]
  cell viability: 116%
[4]
  cell viability: 117%
[5]
  cell viability: 118%
[6]
  cell viability: 115%
[7]
  cell viability: 129%
[8]
  cell viability: 109%
[9]
  cell viability: 6.55%
[10]
  cell viability: 4.69%
[11]
  cell viability: 7.83%
[23]
  cell viability: 106%
[24]
  cell viability: 119%
[25]
  cell viability: 111%
[26]
  cell viability: 127%
[27]
  cell viability: 121%
[28]
  cell viability: 118%
[29]
  cell viability: 114%
[30]
  cell viability: 96.1%
[31]
  cell viability: 5.34%
[32]
  cell viability: 3.16%
[33]
  cell viability: 8.25%
[12]
  cell viability: 99.9%
[13]
  cell viability: 107%
[14]
  cell viability: 109%
[15]
  cell viability: 115%
[16]
  cell viability: 107%
[17]
  cell viability: 111%
[18]
  cell viability: 108%
[19]
  cell viability: 91.1%
[20]
  cell viability: 5.62%
[21]
  cell viability: 4.96%
[22]
  cell viability: 13.8%

## CN(C)CCOc1ccc(-c2nc(-c3ccncc3)c(-c3ccc4c(c3)CC/C4=N\O)[nH]2)cc1
[1]
  cell viability: 103%
[2]
  cell viability: 107%
[3]
  cell viability: 106%
[4]
  cell viability: 100%
[5]
  cell viability: 103%
[6]
  cell viability: 109%
[7]
  cell viability: 106%
[8]
  cell viability: 100%
[9]
  cell viability: 93.7%
[10]
  cell viability: 90.6%
[11]
  cell viability: 65.9%
[23]
  cell viability: 113%
[24]
  cell viability: 108%
[25]
  cell viability: 109%
[26]
  cell viability: 110%
[27]
  cell viability: 109%
[28]
  cell viability: 107%
[29]
  cell viability: 109%
[30]
  cell viability: 103%
[31]
  cell viability: 94.5%
[32]
  cell viability: 96.4%
[33]
  cell viability: 65.6%
[12]
  cell viability: 109%
[13]
  cell viability: 104%
[14]
  cell viability: 114%
[15]
  cell viability: 101%
[16]
  cell viability: 106%
[17]
  cell viability: 105%
[18]
  cell viability: 109%
[19]
  cell viability: 104%
[20]
  cell viability: 96.8%
[21]
  cell viability: 84%
[22]
  cell viability: 66.7%

## CC[C@@]1(O)C(=O)OC\C2=C1\C=C\3N(CC4=C3N=C5C=CC=CC5=C4)C2=O
[1]
  cell viability: 122%
[2]
  cell viability: 120%
[3]
  cell viability: 107%
[4]
  cell viability: 86.1%
[5]
  cell viability: 13.3%
[6]
  cell viability: 10.1%
[7]
  cell viability: 7.26%
[8]
  cell viability: 5.09%
[9]
  cell viability: 4.83%
[10]
  cell viability: 3.78%
[11]
  cell viability: 5.54%
[23]
  cell viability: 115%
[24]
  cell viability: 113%
[25]
  cell viability: 116%
[26]
  cell viability: 69.9%
[27]
  cell viability: 10.9%
[28]
  cell viability: 7.97%
[29]
  cell viability: 6.35%
[30]
  cell viability: 4.58%
[31]
  cell viability: 3.68%
[32]
  cell viability: 3.91%
[33]
  cell viability: 6.1%
[12]
  cell viability: 115%
[13]
  cell viability: 115%
[14]
  cell viability: 107%
[15]
  cell viability: 59.8%
[16]
  cell viability: 16.8%
[17]
  cell viability: 9.84%
[18]
  cell viability: 7.6%
[19]
  cell viability: 5.62%
[20]
  cell viability: 4.44%
[21]
  cell viability: 4.32%
[22]
  cell viability: 6.06%

## O=C1Nc2ccc(I)cc2/C1=C/c1cc(Br)c(O)c(Br)c1
[1]
  cell viability: 103%
[2]
  cell viability: 100%
[3]
  cell viability: 103%
[4]
  cell viability: 105%
[5]
  cell viability: 109%
[6]
  cell viability: 105%
[7]
  cell viability: 108%
[8]
  cell viability: 102%
[9]
  cell viability: 102%
[10]
  cell viability: 98.2%
[11]
  cell viability: 86.4%
[23]
  cell viability: 99%
[24]
  cell viability: 110%
[25]
  cell viability: 106%
[26]
  cell viability: 103%
[27]
  cell viability: 101%
[28]
  cell viability: 104%
[29]
  cell viability: 102%
[30]
  cell viability: 104%
[31]
  cell viability: 101%
[32]
  cell viability: 96.7%
[33]
  cell viability: 79%
[12]
  cell viability: 106%
[13]
  cell viability: 111%
[14]
  cell viability: 110%
[15]
  cell viability: 107%
[16]
  cell viability: 103%
[17]
  cell viability: 111%
[18]
  cell viability: 108%
[19]
  cell viability: 101%
[20]
  cell viability: 100%
[21]
  cell viability: 93.4%
[22]
  cell viability: 84%

## NCCCCNCCCN
[1]
  cell viability: 108%
[2]
  cell viability: 108%
[3]
  cell viability: 115%
[4]
  cell viability: 108%
[5]
  cell viability: 110%
[6]
  cell viability: 121%
[7]
  cell viability: 115%
[8]
  cell viability: 116%
[9]
  cell viability: 109%
[10]
  cell viability: 104%
[11]
  cell viability: 41.4%
[23]
  cell viability: 110%
[24]
  cell viability: 109%
[25]
  cell viability: 113%
[26]
  cell viability: 114%
[27]
  cell viability: 114%
[28]
  cell viability: 118%
[29]
  cell viability: 123%
[30]
  cell viability: 118%
[31]
  cell viability: 105%
[32]
  cell viability: 73.7%
[33]
  cell viability: 3.31%
[12]
  cell viability: 101%
[13]
  cell viability: 102%
[14]
  cell viability: 98.4%
[15]
  cell viability: 116%
[16]
  cell viability: 104%
[17]
  cell viability: 111%
[18]
  cell viability: 115%
[19]
  cell viability: 111%
[20]
  cell viability: 115%
[21]
  cell viability: 87%
[22]
  cell viability: 6.5%
